This note sets out measurements from US20240197729A1, “ALK-5 Inhibitors and Uses Thereof” (Sumitomo Pharma Oncology, Inc., priority 2021, published 2024).

One data set deals with athymic nude mice. The note with it: mouse, in vivo; for therapeutic index: female, athymic nude (NCRNU), 5 days; for MTD / tolerability, acute MTD study: po. The procedure:
. Evaluation of the acute and chronic maximum tolerated dose (MTD) for Compound 04 and Compound 01 was carried out by oral gavage administration of each compound to athymic nude mice according to the following procedure.
Five weeks-old female athymic nude mice (NCRNU) were purchased from Taconic Biosciences, Rensselaer NY, and acclimated for one week. Mice were approximately […] when enrolled in the study. All compounds were resuspended in 1-methyl-2-pyrrolidinone (Sigma, 494496) (10% v/v) plus 20% Solutol (Sigma 42966) in water (90% v/v). Mice were randomized according to the baseline weight (Day 1) at the beginning of the acute and chronic MTD studies.
For the acute MTD study, mice were administered three escalating doses of each compound every other day (two animals per group). Mice were dosed by oral gavage with one hundred milligrams per kilogram on day one, five hundred milligrams per kilogram on day three, and one thousand milligrams per kilogram on day five. Body weight was measured every day, and the percent body weight change was calculated.
For the chronic MTD study, three groups, with three mice per group were dosed daily for five consecutive days, at one hundred, three hundred, or one thousand milligrams per kilogram of Compound 04 or Compound 01, and observed for five consecutive days post-dosing during recovery. Body weight was measured, and clinical observations were recorded daily for ten consecutive days. A vehicle only treatment group of three mice was included to evaluate potential toxicity of the vehicle. The percent body weight change for each day was calculated based on Day 1 measurements.

Data set [1] relates to bleomycin-induced lung fibrosis. Kind of data set: Bleomycin-induced lung fibrosis study. The data set is classed as in vivo, mice. The note with it: for formation of fibrosis, Masson's trichrome stained lung tissue: 25 or 50 mg/kg BID, responding animals; for Ashcroft score, group comparison to the bleomycin/vehicle group: all doses, five animals per group. How it is done: The most common animal model of pulmonary fibrosis is the bleomycin-induced lung fibrosis model in rodents. This model is commonly used to investigate biology and potential therapies for fibrotic diseases affecting the lung, such as idiopathic pulmonary fibrosis (IPF). Bleomycin, a cytotoxic drug, is administered to mice or rats and causes direct cell injury triggered by DNA strand breaks, which leads to an overproduction of reactive oxygen species causing inflammation, pulmonary toxicity, activation of fibroblasts and subsequent fibrosis. Fibrosis is hallmarked by aberrant activation of lung epithelial cells and accumulation of fibroblasts and myofibroblasts with excessive production of extracellular matrix such as collagen. To test the ability of Compound 01 and Compound 04 to reduce fibrosis in vivo, a bleomycin induced lung fibrosis model in mice was utilized and endpoints such as lung hydroxyproline levels, a surrogate marker of collagen and fibrosis, and histological scoring of fibrosis were performed.
For this study, male C57BL/6J mice approximately 6 to 7 weeks old (purchased from Charles River) were weighed on the day prior to study day 0 to establish a baseline. All study arms contained sixteen total animals, except the sham/vehicle group, which contained 10 animals. All animals, except the sham/vehicle group were dosed intranasally with 4 international units per kilogram bleomycin in the morning of day 1 of the study. Bleomycin was prepared in a solution of 0.9 percent sodium chloride. All drugs were prepared in 10 percent Tween 20. Starting in the evening on day 1 of the study, one dose of Compound 04 or Compound 01 was given at either twenty-five or fifty milligrams per kilogram per oral gavage. For all subsequent days of the twenty-one day study, animals were dosed twice a day per oral gavage with either twenty-five or fifty milligram per kilogram of Compound 04 or Compound 01. At day twenty-one, the lungs were harvested and either snap frozen or fixed in paraformaldehyde. The left lobe of the lungs was subjected to hydroxyproline quantification, which was used as a biomarker of fibrosis and total collagen. The remaining lung tissue was fixed in paraformaldehyde to be processed for histological examination following hematoxylin-eosin (H&E) and Masson trichrome staining. […]. Clinical observations were recorded daily.

The test system of data set [2] is TGF-β-induced pan-collagen expression. Kind of data set: In vitro 3D liver fibrosis assay (HepaRG NP 3D model). The conditions noted are these: 1 μM, 100 ng/mL TGF-β1, 72 hours. The class given is cell-based. The procedure: An additional fibrosis assay was carried out with selected compounds using the Visikol OpenLiver™ HepaRG™ NP 3D model directed at fibrosis. The OpenLiver™ HepaRG™ NP 3D model features the ability to recapitulate a number of liver disease pathologies. Whether evaluating the disease-inducing liability of a compound or exploring targets to exploit for therapeutic amelioration of disease state, the HepaRG™ NP 3D model is capable of recapitulating disease features such hepatocellular lipid accumulation, nonparenchymal cell phenotype shift, and collagen matrix deposition.
HepaRGs (Lonza, NSHPRG, Lot #HNS1013) and non-parenchymal (NP) cells (Stellates, Kupffers and LSECS (Lonza, Lot HUM201221)) were thawed, assessed for viability and seeded at a hepatocyte to NP cell ratio of 60:40 into an ultra-low attachment round-bottom plate (Corning, 4515). The cells were initially cultured in William's E medium supplemented with HepaRG Thaw, Plate & General Purpose Supplement (Thermo Fisher, HPRG770) and GlutaMax (Thermo Fisher, 35050061) overnight. The next day the medium was half exchanged with William's E medium supplemented with HepaRG Maintenance Supplement (Thermo Fisher, HPRG720) and GlutaMax (Thermo Fisher, 35050061). […]
Clearing the spheroid with Visikol HISTO-M™ allows for clear images throughout the spheroid volume, therefore allowing the entire z-stack to be analyzed. […]

With `Cc1nn(CC(F)(F)F)cc1Nc1cc(Nc2cnnc3c(C)cccc23)ccn1` [Compound 01, N2-[3-methyl-1-(2,2,2-trifluoroethyl)-1H-pyrazol-4-yl]-N4-(8-methylcinnolin-4-yl)pyridine-2,4-diamine], in the data set with athymic nude mice, the therapeutic index entry was “less than 4 ×”; the MTD result is recorded as “less than three hundred”; the “tolerability, acute MTD study” value was “well tolerated in mice at one thousand milligrams per kilogram with single dose administration”. Moreover, in data set [1], the “formation of fibrosis, Masson's trichrome stained lung tissue” value is “reduced the formation of fibrosis” and the “Ashcroft score, group comparison to the bleomycin/vehicle group” value is given as “not statistically significant”. In addition, the TGF-β-induced pan-collagen expression entry in data set [2] is “inhibited TGF-β-induced pan-collagen expression”.

In the case of `Clc1cccc2c(Nc3ccnc(Nc4cccc(N5CCOCC5)c4)c3)cnnc12` [Compound 04, N4-(8-chlorocinnolin-4-yl)-N2-[3-(morpholin-4-yl)phenyl]pyridine-2,4-diamine], in the data set with athymic nude mice, the therapeutic index is recorded as 6 ×; the MTD result was “three hundred”; the “tolerability, acute MTD study” value was “well tolerated in mice at one thousand milligrams per kilogram with single dose administration”. Further, in data set [1], the “formation of fibrosis, Masson's trichrome stained lung tissue” value is “reduced the formation of fibrosis” and the “Ashcroft score, group comparison to the bleomycin/vehicle group” value is “not statistically significant”. Moreover, in data set [2], the TGF-β-induced pan-collagen expression entry is “inhibited TGF-β-induced pan-collagen expression”.
